The values that follow come from publication PMC6539809, “Development of Oxygen-Bridged Pyrazole-Based Structures as Cannabinoid Receptor 1 Ligands” (Molecules, 2019).

For series [1], the system named is P-ERK 1/2 expression in mouse neuroblastoma N1E-115 cells (CB1Rs). The series can be described thus: P-ERK 1/2 expression in N1E-115 cells (Western blot). The series is classed as cell-based. The following applies: 5 min pre-treatment with compound (150–200 nM; 1b 200 nM), then WIN 55,212-2 25 nM for 10 min. On the procedure:
Agonist or antagonist activity of the new derivatives towards CB1Rs were assayed through in vitro testing based on the determination of phosphorylated ERK 1/2 (P-ERK 1/2) expression in a mouse neuroblastoma N1E-115 cell line. As previously reported, this cell line expresses CB1Rs but not CB2Rs; moreover, it has been shown that the exposure of N1E-115 cells to the cannabinoid agonists arachidonyl-2-chloroethylamide (ACEA) and WIN 55-212,2 induces a rapid phosphorylation and activation of the ERK 1/2. The addition of CB1 antagonists as SR141716A abolishes the response induced by the cannabinoid agonists.
N1E-115 cells were grown at 37 °C in humidified 5% CO2 in Dulbecco’s Modified Eagle’s Medium (high glucose supplemented with 10% fetal bovine serum (FBS), 1 μg/mL penicillin-streptomycin, 2 mM L-glutamine, 2.5 μg/mL amphotericin B and 50 μg/mL gentamicin). […] Tested and reference compounds were dissolved in Dulbecco’s phosphate buffered saline (D-PBS) with 1% DMSO and treatments were performed in a volume of 10 μL/mL of cell suspension.
P-ERK 1/2 expression was determined through Western blot analysis according to the previously reported procedure. One-way ANOVA was performed as a statistical analysis using the Graph Pad Prism program (San Diego, CA, USA).
The same procedure was adopted to determine CB1 specific antagonism for compounds which had no effect on P-ERK 1/2 expression themselves. In these last cases, WIN55,212-2 at 25 nM as a reference cannabinoid agonist agent and the new CB1 antagonists at 150–200 nM were employed.

In series [2] the target is T1, CB1Rs of mouse vas deferens (Mus musculus, UniProt P47746).
T1 construct: naturally expressed prejunctional neuronal CB1Rs; from tissue; host or cells: isolated vas deferens of male albino CD1 mice
The experiment in a line: Isolated organ assay: electrically evoked contractions of mouse vas deferens.
Procedure: Vas deferens was obtained from male albino CD1 mice weighing 30 to 40 g. Tissue was mounted in a 10 mL organ bath at an initial tension of 0.5 g using a previously described method [16]. The bath contained Krebs-Henseleit solution (118.2 mM NaCl, 4.75 mM KCl, 1.19 mM KH2PO4, 25.0 mM NaHCO3, 11.0 mM glucose, and 2.54 mM CaCl2), which was kept at 37 °C and bubbled with 95% O2 and 5% CO2. Isometric contractions were evoked by stimulation with 0.5 sec trains of three pulses of 110% maximal voltage (train frequency, 0.1 Hz; pulse duration, 0.5 msec) through platinum electrodes attached to the upper end of each bath and a stainless-steel electrode attached to the lower end. Stimuli were generated using a Grass S88K stimulator and then amplified (multiplexing pulse booster 316S; Ugo Basile, Comerio, Italy) and divided to yield separate outputs to four organ baths. Contractions were monitored using a computer equipped with a data recording and analysis system (PowerLab 400) linked via preamplifiers (QuadBridge) to an F10 transducer (Biological Instruments, Besozzo, Italy). Each tissue was subject to several periods of stimulation. […] The stimulator was then switched off for 15 min, after which the tissues were subjected to further periods of stimulation each lasting 5 min and separated by a stimulation-free period. The compounds to be assayed were added once the contractile responses to electrical stimulation were reproducible. Preparations were exposed to cumulative increasing concentrations of the compounds to obtain concentration-response curves in the case of CB1 agonist (and partial agonist) compounds. […] Inhibition of the electrically evoked twitch response was expressed in percentage terms and was calculated by comparing the amplitude of the twitch response after each addition of the agonist compound (alone or in the presence of a potential CB1 antagonist) with the amplitude detected in absence of the compounds to be assayed (basal value). The pA2 values for competitive antagonism were calculated by Schild regression analysis [37]. Data were plotted as log antagonist concentration versus log [(antagonist concentration/agonist concentration)-1].

Series [3] concerns CD1 mice. The series can be described thus: Gastrointestinal transit (GIT), carmine marker. The format is in vivo, mouse. The source says: The mouse isolated vas deferens is a nerve-smooth muscle preparation that serves as a highly sensitive and quantitative functional in vitro bioassay for cannabinoid CB1R agonists. The effect of CB1 agonists is related to the action on naturally expressed prejunctional neuronal CB1Rs to inhibit release of the contractile neurotransmitters, noradrenaline and ATP, which is provoked by electrical stimulation. It has been shown that CB1 antagonist derivatives are able to block or reduce the inhibition of the electrically evoked contraction amplitude of the vas deferens induced by CB1 agonists, with parallel dextral shifts in CB1R agonist log concentration-response curves in electrically stimulated tissues. According to previous studies concerning cannabinoid agents, a gastrointestinal transit test was adopted to confirm CB1 antagonism. […] Moreover, the capability of CB1 antagonist compounds both to block the constipation effect induced by cannabinoid agonists and to themselves increase themselves gastrointestinal motility has been reported.
The same procedure previously reported by Murineddu et al. was adopted to evaluate the effect of the compounds on GIT. CD1 mice weighing 30–35 g were used. Carmine (Sigma Chemical Co, St. Louis, MO, USA) was suspended (6% wt/v) in distilled water containing 0.5% methylcellulose and administered by gavage at the dose of 0.3 mL/mouse. Briefly, after 20 min from carmine administration, mice were sacrificed by cervical dislocation and the stomach and small intestine were removed and the omentum was separated, avoiding stretching. The length of the intestine was measured starting from the pyloric sphincter to the ileocecal junction. The distance travelled by the head of the marker was measured and expressed as a percent of the total length of the small intestine. Using this procedure, the marker was consistently found at approximately 50% of the small intestine, 20 min after its administration to naive mice.
20 min later, mice were killed by dislocation cervical and intestines were removed. […] The length of the intestine from the pyloric sphincter to the ileocecal junction and the distance travelled by the carmine front were both measured and recorded. Groups of n = 10 mice were used in each experiment.
Statistical analyses were performed by one-way ANOVA followed by Newman-Keuls post-hoc comparison.

Series [4] deals with C57Bl6/J mice. The experiment in a line: Acute food intake in fasted mice. The series is classed as in vivo, mouse. On the procedure: To further evaluate the potential application of these CB1 antagonists in the control of food intake and in obesity treatment, compound 1b was preliminarily tested in comparison with SR141716A in an acute in vivo assay using C57Bl6/J mice. The evaluation was carried out according to the animal model previously reported by Di Marzo [19].
It is well known that CB1Rs mediate the hyperphagic effect of cannabinoids. […] To test the potential anti-obesity effect of the new CB1 antagonist 1b we performed food intake experiments according to the acute animal model described by Di Marzo [19]. For a comparison we also reported the results concerning the assumed lead compound of this new series, derivative 1a.
A widely described method was used for the screening of the new CB1 antagonists in the food intake animal model. C57Bl6/J mice weighing 20–25 g were housed individually on a reverse light-dark cycle in a room with temperature and humidity control. The mice were fasted for 18 h before testing. Vehicle or CB1 antagonists were administered by an intraperitoneal injection and 15 min later a known amount of food was presented. Food pellets were weighed after each hour for three hours. Rimonabant was used as internal positive control in order to evaluate the efficacy of each compound. All animal experiments were performed according to the UE (CEE N° 86/609) guidelines for the care and use of experimental animals.
Two-way ANOVA with Bonferroni post-testing was performed using GraphPad Prism version 5.00 for Windows (GraphPad Software, San Diego CA, USA).

The target of series [5] is T2, CB1 receptor (Mus musculus, UniProt P47746).
T2 construct: from tissue; host or cells: mouse (CD1) brain minus cerebellum, membrane homogenate
The following applies: [3H]-CP 55,940, mouse brain (minus cerebellum) homogenate; lead compound; read-out: KiCB1; cited from earlier work.

In series [6] the target is T3, CB2 receptor (Mus musculus, UniProt P47936).
T3 construct: from tissue; host or cells: mouse (CD1) spleen, membrane homogenate
The following applies: [3H]-CP-55,940, mouse spleen homogenate; lead compound; read-out: KiCB2; cited from earlier work.

The subject of series [7] is rats. More on the design: method as in PMID 27521837. As to conditions: i.p. dose of 0.125 mg/kg; cited from earlier work.
Series [8] concerns ventral tegmental area (VTA) dopamine neurons projecting to the NAc shell. More on the design: method as in PMID 27521837. The following applies: i.v. administration of high doses; cited from earlier work.

T1 sequence (P47746 whole entry): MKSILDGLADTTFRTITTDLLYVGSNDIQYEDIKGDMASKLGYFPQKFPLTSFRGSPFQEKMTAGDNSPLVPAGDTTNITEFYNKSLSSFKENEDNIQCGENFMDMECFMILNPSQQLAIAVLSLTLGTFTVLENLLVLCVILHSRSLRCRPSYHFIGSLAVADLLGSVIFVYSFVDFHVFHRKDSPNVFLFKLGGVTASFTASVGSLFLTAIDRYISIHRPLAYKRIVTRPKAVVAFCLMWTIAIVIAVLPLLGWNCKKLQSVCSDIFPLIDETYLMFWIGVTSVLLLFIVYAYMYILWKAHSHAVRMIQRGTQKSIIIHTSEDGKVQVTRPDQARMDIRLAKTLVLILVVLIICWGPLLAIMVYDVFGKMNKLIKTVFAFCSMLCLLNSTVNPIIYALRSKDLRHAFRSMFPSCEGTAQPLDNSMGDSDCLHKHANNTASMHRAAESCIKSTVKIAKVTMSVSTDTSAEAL
T3 sequence (P47936 whole entry): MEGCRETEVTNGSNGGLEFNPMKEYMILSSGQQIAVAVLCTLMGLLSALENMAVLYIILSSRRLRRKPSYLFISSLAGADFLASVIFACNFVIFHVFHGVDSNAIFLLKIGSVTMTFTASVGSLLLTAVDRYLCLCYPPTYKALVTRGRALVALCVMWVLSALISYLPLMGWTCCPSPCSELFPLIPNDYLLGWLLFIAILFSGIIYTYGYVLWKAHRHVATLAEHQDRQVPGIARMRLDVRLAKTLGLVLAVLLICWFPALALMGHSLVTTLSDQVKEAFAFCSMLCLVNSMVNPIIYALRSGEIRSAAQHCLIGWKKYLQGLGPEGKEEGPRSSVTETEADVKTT
T2 sequence (P47746 whole entry): as the sequence (P47746 whole entry) above

Turning to `O=C(NC1CCCCC1)c1nn(-c2ccc(Cl)cc2Cl)c2c1CCOc1cc(Cl)ccc1-2` [Compound 1b], the “Counteraction of the WIN 55,212-2-induced increase of P-ERK 1/2 expression” value in series [1] is “CB1 antagonist activity”. Further, the Kb in series [2] (read-out: Antagonist potency pA2 (converted)) was 0.794 nM. Also, the “Change of electrically-evoked contractions versus basal response, compound alone” value in series [2] (up to a concentration of 10^−6 M, 30 min incubation) is “No agonist activity”. In series [3] (0.5–1.0 mg/kg i.p.), the “Increase in gastrointestinal transit in comparison to vehicle-treated mice” value is given as 65–70%. Besides, the “Effect on GIT in combination with WIN 55,212-2” value in series [3] (WIN 55,212-2 0.5 mg/kg i.p.) is on record as “significantly blocked”. Further, the “Food intake effect over time” value in series [4] (10 mg/kg i.p., at 2 h and 3 h) is given as “still markedly decreased food intake”. The “Observable side effects / behavioural effects” value in series [4] (20 mg/kg (highest assayed dosage)) is “absence of observable side effects”. Further, in series [4] (dose of 10 mg/kg i.p.), the “Activity on food intake compared to rimonabant” value is recorded as “Significant increments of the activity”. Besides, the “Food intake compared to vehicle” value in series [4] (starting from a dose of 3 mg/kg i.p., fasted mice) is “significantly reduced food intake”. The values for the Ki in series [5] and in series [6] were 40 ± 7 nM and 3725 ± 25 nM, respectively. In addition, in series [7], the “Food intake and body weight” value was “reduced both food intake and body weight”. Besides, in series [8], the “Effect on the WIN-55,212-2 action on VTA dopamine neuron activity” value is reported as “reverted the effect of the agonist WIN-55,212-2”.
